The values that follow come from patent publication US9055745B2, “Compositions for internal and external insecticides, ovicides, repellents and wound healing” (Natureza, Inc., priority 2011, dated 2015).

The subject of data set [1] is fleas. Nature of the data set: Flea contact test using impregnated glass paper (Example XIII, FIG. 15, Table 13). The class given is in vivo. Conditions: for Mortality of the fleas: 200 μL on glass filter paper, after twenty-four hours, 12 fleas. How it is done: The fatty acids used in the test were mono laurin and lauric acid, while the fatty acid esters used in the test were methyl laurate, i.e. lauric acid methyl ester and ethyl dodecanoate, i.e. lauric acid ethyl ester. Each of these compounds were dissolved in ethanol in concentrations of 0.1% and 1%, and then 200 μL (micro liters) of each solution was placed on glass filter paper (15×150 mm). After the ethanol had evaporated a paper for each concentration of each compound was put into a test tube, and 12 fleas were added per test tube and the top of the test tube was covered. Whether the fleas were alive or dead at was measured after 2 and twenty-four hours. […] Further results are shown below in Table 13.

Data set [2] deals with ctenocephalides felis. Nature of the data set: Efficacy of fatty acid methyl esters in water or acetone on glass paper (Table 14). The class given is in vivo. From the text: Further results are shown below in Table 14, regarding the efficacy of various fatty acid methyl and ester esters against fleas (ctenocephalides felis).

Turning to `CO[C@H]1CO[C@H]2[C@@H]1OC[C@H]2OC` [ISDE - 1% (benign base), isosorbide dimethyl ether], the “% Killed” value in data set [1] (after 24 hours) is reported as 0%. In data set [1] (number of fleas, 2 hours), the “2 hours Alive” value was found to be 12 and the “2 hours Dead” value was 0. In data set [1] (number of fleas, 24 hours), the “24 hours Alive” value was 12 and the “24 hours Dead” value is on record as 0.
As for `CCCCCCCCCC(=O)OC` [Methyl decanoate], in data set [2] (0.1% in Acetone), the “5 Hours Alive” value was 12, the “5 Hours Dead” value stood at 0, the “2 hours Alive” value is given as 12 and the “2 hours Dead” value amounted to 0. In data set [2] (0.1% in Acetone), the “20 hours Alive” value amounted to 12 and the “20 hours Dead” value worked out at 0. Also, in data set [2] (0.1% in Water), the “5 Hours Alive” value was determined as 11, the “5 Hours Dead” value was 0, the “2 hours Alive” value turned out to be 11 and the “2 hours Dead” value is reported as 0. In data set [2] (0.1% in Water), the “20 hours Alive” value is recorded as 11 and the “20 hours Dead” value was 0. Besides, in data set [2] (1% in Acetone), the “5 Hours Alive” value is listed as 14, the “5 Hours Dead” value came out at 0, the “2 hours Alive” value is reported as 14 and the “2 hours Dead” value was determined as 0. In addition, in data set [2] (1% in Acetone), the “20 hours Alive” value came out at 14 and the “20 hours Dead” value is on record as 0. In data set [2] (1% in Water), the “5 Hours Alive” value was 19, the “5 Hours Dead” value is given as 0, the “2 hours Alive” value is 19 and the “2 hours Dead” value came to 0. Moreover, in data set [2] (1% in Water), the “20 hours Alive” value amounted to 19 and the “20 hours Dead” value was found to be 0.
As for `CCCCCCCCCCCC(=O)OC` [Methyl laurate, lauric acid methyl ester], the “Mortality of the fleas” value in data set [1] (0.1% in ethanol) is on record as 100%. Moreover, the “Mortality of the fleas” value in data set [1] (1% in ethanol) was 100%. Also, in data set [2] (0.1% in Acetone), the “5 Hours Alive” value is listed as 15, the “5 Hours Dead” value was determined as 0, the “2 hours Alive” value amounted to 15 and the “2 hours Dead” value came out at 0. Also, in data set [2] (0.1% in Acetone), the “20 hours Alive” value is given as 15 and the “20 hours Dead” value is 0. In addition, in data set [2] (0.1% in Water), the “5 Hours Alive” value is listed as 15, the “5 Hours Dead” value came out at 0, the “2 hours Alive” value was determined as 15 and the “2 hours Dead” value is on record as 0. In data set [2] (0.1% in Water), the “20 hours Alive” value was found to be 15 and the “20 hours Dead” value amounted to 0. Also, in data set [2] (1% in Acetone), the “5 Hours Alive” value was found to be 0, the “5 Hours Dead” value amounted to 13, the “2 hours Alive” value was found to be 0 and the “2 hours Dead” value is reported as 13. Moreover, in data set [2] (1% in Acetone), the “20 hours Alive” value came to 0 and the “20 hours Dead” value came to 13. Moreover, in data set [2] (1% in Water), the “5 Hours Alive” value is 11, the “5 Hours Dead” value is 0, the “2 hours Alive” value worked out at 11 and the “2 hours Dead” value is on record as 0. In data set [2] (1% in Water), the “20 hours Alive” value is on record as 11 and the “20 hours Dead” value was 0.
For `CCCCCCCCC(=O)OC` [Methyl nonanoate], in data set [2] (0.1% in Acetone), the “5 Hours Alive” value is 14, the “5 Hours Dead” value turned out to be 0, the “2 hours Alive” value came out at 14 and the “2 hours Dead” value amounted to 0. In data set [2] (0.1% in Acetone), the “20 hours Alive” value is listed as 14 and the “20 hours Dead” value was 0. In data set [2] (0.1% in Water), the “5 Hours Alive” value was found to be 12, the “5 Hours Dead” value was determined as 0, the “2 hours Alive” value was determined as 12 and the “2 hours Dead” value came out at 0. Further, in data set [2] (0.1% in Water), the “20 hours Alive” value came out at 12 and the “20 hours Dead” value came out at 0. For the same compound, in data set [2] (1% in Acetone), the “5 Hours Alive” value is listed as 9, the “5 Hours Dead” value worked out at 0, the “2 hours Alive” value is 9 and the “2 hours Dead” value was 0. For the same compound, in data set [2] (1% in Acetone), the “20 hours Alive” value was found to be 9 and the “20 hours Dead” value is listed as 0. In data set [2] (1% in Water), the “5 Hours Alive” value was 14, the “5 Hours Dead” value is on record as 0, the “2 hours Alive” value turned out to be 14 and the “2 hours Dead” value is listed as 0. In data set [2] (1% in Water), the “20 hours Alive” value was found to be 14 and the “20 hours Dead” value was 0.
On to `CCCCCCCC(=O)OC` [Methyl octanoate], for which, in data set [2] (0.1% in Acetone), the “5 Hours Alive” value amounted to 16, the “5 Hours Dead” value is listed as 0, the “2 hours Alive” value stood at 16 and the “2 hours Dead” value worked out at 0. Also, in data set [2] (0.1% in Acetone), the “20 hours Alive” value was determined as 16 and the “20 hours Dead” value came out at 0. Further, in data set [2] (0.1% in Water), the “5 Hours Alive” value was determined as 10, the “5 Hours Dead” value is 0, the “2 hours Alive” value was found to be 10 and the “2 hours Dead” value is reported as 0. In data set [2] (0.1% in Water), the “20 hours Alive” value turned out to be 10 and the “20 hours Dead” value stood at 0. Further, in data set [2] (1% in Acetone), the “5 Hours Alive” value was found to be 8, the “5 Hours Dead” value was 0, the “2 hours Alive” value turned out to be 8 and the “2 hours Dead” value turned out to be 0. Also, in data set [2] (1% in Acetone), the “20 hours Alive” value was 8 and the “20 hours Dead” value is reported as 0. Also, in data set [2] (1% in Water), the “5 Hours Alive” value worked out at 5, the “5 Hours Dead” value amounted to 0, the “2 hours Alive” value is listed as 5 and the “2 hours Dead” value worked out at 0. Also, in data set [2] (1% in Water), the “20 hours Alive” value is 5 and the “20 hours Dead” value is 0.
For the compound `CCCCCCCCCCCC(=O)OCC` [lauric acid ethyl ester], the “Mortality of the fleas” value in data set [1] (0.1% in ethanol) and in data set [1] (1% in ethanol) was 100% in each case.
